Laboratory results taken from patent US6326034A, “Natural extracted and synthetic antioxidant compositions” (priority 1999, dated 2001).

Legend:
[1] = β-carotene test (coupled oxidation of β-carotene and linoleic acid), in vitro; conditions: β Carotene test; for antioxidant activity (in words): chromium compounds and their reactants; for EC50 for antioxidant activity of chromium compounds: Table 6
Experimental: Evaluation of antioxidant activity is based on coupled oxidation of β-carotene and linoleic acid. The technique consists of measuring the consumption of β-carotene as a result of its oxidation process in the reaction mixture. The β-carotene-linoleic acid method has been reported as an efficient technique to detect and evaluate antioxidants from plants and from other sources by several investigation groups. Ten milligram of β-carotene were dissolved in 10 ml chloroform and 0.6 ml of the solution was added to a round flask that contained 20 mg of linoleic acid and 200 mg of Tween 20. Chloroform was removed by evaporation, and 50 ml of distilled water were slowly added to the flask with vigorous agitation to form an emulsion. Two milliliters of the emulsion were added to 1 ml of the examined antioxidant solution. The tubes were placed in a water bath at 50° C. and absorbance measurements were made at 30 minutes intervals [M. S. Taga et al., J. Am. Oil Chem. Soc. 61: 928-931, 1984]. […]

[2] = FRAP assay (ferric reducing/antioxidant power), in vitro

O=S(=O)([O-])[O-].O=S(=O)([O-])[O-].O=S(=O)([O-])[O-].[Cr+3].[Cr+3] [Cr2(SO4)3, chromium sulfate, reference compound]
antioxidant activity (in words) [1]: relatively much lower antioxidant effect

CC(=O)[O-].CC(=O)[O-].CC(=O)[O-].[Cr+3] [Cr Acetate, chromium acetate, reference compound]
antioxidant activity (in words) [1]: lacks any antioxidant activity

[Cl][Cr]([Cl])[Cl] [CrCl3, chromium chloride, reference compound]
antioxidant activity (in words) [1]: relatively much lower antioxidant effect
EC50 for antioxidant activity of chromium compounds [1]: 7.2 × 10^-4 mg Cr/ml
antioxidant activity (in words) ([2]; chromium compounds, FRAP, all concentrations used): inactive

N[C@@H](CS)C(=O)O [Cysteine, cysteine, reference compound]
antioxidant activity (in words) [1]: no antioxidant activity

N[C@@H](CCC(=O)N[C@@H](CS)C(=O)NCC(=O)O)C(=O)O [Glutathione, glutathione, reference compound]
antioxidant activity (in words) [1]: lower activity

CC(=O)N[C@@H](CS)C(=O)O [NAC, N-acetyl cysteine, reference compound]
antioxidant activity (in words) [1]: lower activity

Chromium Cysteine [Cr-Cys]
antioxidant activity (in words) [1]: the most active complex
antioxidant activity (in words) ([1]; listed as Cr-cysteine): dose dependent antioxidant activity
EC50 for antioxidant activity of chromium compounds [1]: 7.8 × 10^-8 mg Cr/ml
fold more active than cysteine ([2]; at equal concentrations of cysteine, FIG. 27): 2.5 fold

Chromium N-Acetyl Cysteine [Cr-NAC]
antioxidant activity (in words) [1]: dose dependent antioxidant activity
EC50 for antioxidant activity of chromium compounds [1]: 2.7 × 10^-7 mg Cr/ml

Chromium-Cystine
antioxidant activity (in words) [1]: did not show any antioxidant activity

Chromium-Glutathione [Cr-GSH]
antioxidant activity (in words) [1]: dose dependent antioxidant activity
EC50 for antioxidant activity of chromium compounds [1]: 2.7 × 10^-7 mg Cr/ml
